Tests used:
osteoclasts = conditions: Sato et al. 1990 (echistatin); Bertolini et al. (cyclic peptide); cited from earlier work
bone resorption [1] = conditions: rat; Fisher et al., Endocrinology 1993; cited from earlier work
bone resorption [2] = conditions: Sato et al., J. Cell Biol. 1990; cited from earlier work
[3] = biological target: T1, αvβ3 (vitronectin receptor) (Homo sapiens, UniProt P05106+P06756); assay: Solid-phase [3H]-SK&F-107260 binding to αvβ3 (inhibition of vitronectin binding); conditions: [3H]-SK&F-107260 as ligand, 5.0 nM; human placenta or platelet αvβ3
T1 construct: Human placenta or human platelet αvβ3; from tissue; host or cells: human placenta or human platelets
T1 sequence (P06756 31-889 limits assumed): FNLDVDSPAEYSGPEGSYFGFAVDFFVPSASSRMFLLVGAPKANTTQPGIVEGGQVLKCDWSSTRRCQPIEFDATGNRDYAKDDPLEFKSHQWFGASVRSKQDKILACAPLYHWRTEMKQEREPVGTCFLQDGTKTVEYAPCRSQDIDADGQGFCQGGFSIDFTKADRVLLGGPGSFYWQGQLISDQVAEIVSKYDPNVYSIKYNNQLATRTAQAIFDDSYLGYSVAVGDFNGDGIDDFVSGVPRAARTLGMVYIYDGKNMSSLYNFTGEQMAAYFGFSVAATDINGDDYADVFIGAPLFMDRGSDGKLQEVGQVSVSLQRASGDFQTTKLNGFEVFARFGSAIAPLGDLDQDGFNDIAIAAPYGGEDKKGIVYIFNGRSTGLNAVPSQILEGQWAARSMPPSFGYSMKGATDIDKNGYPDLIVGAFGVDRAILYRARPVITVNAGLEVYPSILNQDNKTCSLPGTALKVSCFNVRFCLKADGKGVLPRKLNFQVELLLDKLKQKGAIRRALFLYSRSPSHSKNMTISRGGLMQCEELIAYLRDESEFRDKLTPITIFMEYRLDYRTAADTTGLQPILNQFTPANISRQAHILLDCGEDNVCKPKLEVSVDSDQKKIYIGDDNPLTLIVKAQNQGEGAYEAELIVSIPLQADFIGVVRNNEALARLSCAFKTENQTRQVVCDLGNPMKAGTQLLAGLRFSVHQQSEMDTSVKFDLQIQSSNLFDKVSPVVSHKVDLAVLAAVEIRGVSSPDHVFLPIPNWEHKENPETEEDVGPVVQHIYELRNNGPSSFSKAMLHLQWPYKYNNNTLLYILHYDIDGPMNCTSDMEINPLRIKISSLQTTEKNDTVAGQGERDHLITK
T1 sequence (P06756 891-1048 partner limits assumed): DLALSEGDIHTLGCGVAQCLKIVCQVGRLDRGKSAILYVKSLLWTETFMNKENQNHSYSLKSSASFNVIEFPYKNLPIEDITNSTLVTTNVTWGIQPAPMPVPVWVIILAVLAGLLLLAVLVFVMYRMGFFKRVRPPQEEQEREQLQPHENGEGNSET
T1 sequence (P05106 27-788): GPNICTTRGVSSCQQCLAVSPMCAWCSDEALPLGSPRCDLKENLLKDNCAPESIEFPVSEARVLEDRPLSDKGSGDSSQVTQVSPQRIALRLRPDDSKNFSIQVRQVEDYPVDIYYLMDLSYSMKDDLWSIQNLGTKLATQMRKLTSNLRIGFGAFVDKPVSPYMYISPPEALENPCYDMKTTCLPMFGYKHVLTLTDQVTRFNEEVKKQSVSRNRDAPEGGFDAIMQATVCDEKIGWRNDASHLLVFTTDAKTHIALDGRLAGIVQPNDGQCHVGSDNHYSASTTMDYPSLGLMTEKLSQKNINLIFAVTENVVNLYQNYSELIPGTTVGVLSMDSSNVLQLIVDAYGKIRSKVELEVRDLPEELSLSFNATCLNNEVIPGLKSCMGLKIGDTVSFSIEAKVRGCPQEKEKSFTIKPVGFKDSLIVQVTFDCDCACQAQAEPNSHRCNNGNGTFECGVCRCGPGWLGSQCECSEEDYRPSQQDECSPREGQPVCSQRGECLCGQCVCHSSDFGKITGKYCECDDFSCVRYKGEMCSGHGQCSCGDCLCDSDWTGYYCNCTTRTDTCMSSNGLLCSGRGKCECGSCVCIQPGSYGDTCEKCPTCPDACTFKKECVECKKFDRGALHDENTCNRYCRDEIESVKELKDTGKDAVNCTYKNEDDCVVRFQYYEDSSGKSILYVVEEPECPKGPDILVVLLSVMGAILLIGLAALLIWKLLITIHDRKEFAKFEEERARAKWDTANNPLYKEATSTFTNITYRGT
Protocol: Solid-Phase [^3 H]-SK&F-107260 Binding to αvβ3 : Human placenta or human platelet αvβ3 (0.1-0.3 mg/mL) in buffer T (containing 2 mM CaCl2 and 1% octylglucoside) was diluted with buffer T containing 1 mM CaCl2, 1 mM MnCl2, 1 mM MgCl2 (buffer A) and 0.05% NaN3, and then immediately added to 96-well ELISA plates (Corning, New York, N.Y.) at 0.1 mL per well. 0.1-0.2 ,g of αvβ3 was added per well. The plates were incubated overnight at 4° C. At the time of the experiment, the wells were washed once with buffer A and were incubated with 0.1 mL of 3.5% bovine serum albumin in the same buffer for 1 hr at room temperature. Following incubation the wells were aspirated completely and washed twice with 0.2 mL buffer A. […]
The plates were incubated for 1 hr at room temperature. […] The receptors were solubilized with 0.1 mL of 1% SDS and the bound [^3 H]-SK&F-107260 was determined by liquid scintillation counting with the addition of 3 mL Ready Safe in a Beckman LS Liquid Scintillation Counter, with 40% efficiency. Nonspecific binding of [^3 H]-SK&F-107260 was determined in the presence of 2 LM SK&F-107260 and was consistently less than 1% of total radioligand input. […] The Ki (dissociation constant of the antagonist) was calculated according to the equation: Ki =IC50 /(1+L/Kd), where L and Kd were the concentration and the dissociation constant of [^3 H]-SK&F-107260, respectively.

Row | Ki [3] [nM] | Compound | inhibition of attachment of osteoclasts to bone (osteoclasts) | inhibition of bone resorption in vivo (bone resorption [1]) | inhibition of bone resorption in tissue culture (bone resorption [2])
1 |  | cylco-S,S-N^α -acetyl-cysteinyl-N^α -methyl-argininyl-glycyl-aspartyl-penicillamine | inhibits osteoclast attachment to bone |  | 
2 |  | echistatin | inhibits attachment of osteoclasts to bone | inhibits bone resorption in vivo in the rat | potent inhibitor of bone resorption in tissue culture
3 | ~23 | O=C(O)CC1Cc2ccc(OCCCNc3ccccn3)cc2CCC1=O (racemic) [(±)-2-(2-Pyridylamino)propoxy-6,7,8,9-tetrahydro-7-oxo-5H-benzocycloheptenyl-6-acetic acid] |  |  | 
